This is an account of results in patent US12365687B2 (Hoffmann-La Roche Inc., priority 2021, dated 2025).

A word on the Ki: it is the equilibrium dissociation constant of an inhibitor or competing ligand from its target. Low values mean higher affinity, high ones lower affinity.

Test [1] concerns the target human GABAA α5β2γ1 receptor (Homo sapiens (Human), UniProt P31644+Q8N1C3). Briefly: Radioligand binding assay for γ1-containing GABAA subtypes, [3H]RO7239181 competition (α5β2γ1).
Test [2] addresses human GABAA α2β2γ1 receptor (Homo sapiens (Human), UniProt P47869+Q8N1C3). Description: Radioligand binding assay for γ1-containing GABAA subtypes, [3H]RO7239181 competition (α2β2γ1).
The target of test [3] is human GABAA α1β3γ2 receptor (Homo sapiens (Human), UniProt P14867+P18507). Briefly: Radioligand binding assay for γ2-containing GABAA subtypes, [3H]Flumazenil competition (α1β3γ2). Conditions: for γ2/γ1 Selectivity Ratio: Ki α1β3γ2 (nM)/Ki α2β2γ1 (nM); for LogSel: Log[Ki α1β3γ2 (nM)/Ki α2β2γ1 (nM)].
The target in test [4] is α2β2γ1 GABAA receptor subtype (Homo sapiens (Human), UniProt P47869+Q8N1C3). Briefly: Two-electrode voltage clamp electrophysiology in Xenopus oocytes expressing GABAA receptors (modulation of GABA EC20 current). Format: cell-based. The following applies: for Efficacy (GABA)%: % modulation of GABA EC20 = 100*(Fold increase-1), α2β2γ1 oocytes, compound at approx. 30-fold Ki; for Fold increase h-GABA-A α2β2γ1 oocyte @ 30-fold Ki: Xenopus oocytes expressing α2β2γ1, compound at approx. 30-fold its Ki α2β2γ1, GABA EC20 current. The method, boiled down: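 Two-electrode voltage clamp at −80 mV, room temperature, 3-5 days after mRNA injection into oocytes. GABA applied at EC20 for 1.5 min, twice, with compound during second application; at least 3 oocytes per concentration. Efficacy = extremum of point-by-point current ratio, expressed as 100×(fold increase−1).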

Setting [5] is: Ki h-GABAA α2β2γ1, [3H]RO7239181 competition binding, human GABAA α2β2γ1.
Where [6] appears, read: Ki h-GABAA α2β2γ1, displacement of [3H]RO7239181, membranes of HEK293F cells expressing human receptors, means of two determinations.

For the compound `C[C@@H]1N=C(c2c(F)cccc2F)c2c(ccc(C(F)(F)F)c2Cl)-n2c1nc1c2CCC1` [Example 133, (10S)-6-chloro-8-(2,6-difluorophenyl)-10-methyl-5-(trifluoromethyl)-1,9,12-triazatetracyclo[9.6.0.02,7.013,17]heptadeca-2,4,6,8,11,13(17)-hexaene], the Ki in test [1] amounted to 5.23 nM; in test [2] (setting [5]), 23.3 nM; in test [2] (setting [6]), 23.3 nM; in test [3] it was 827 nM. In test [3], the “γ2/γ1 Selectivity Ratio” value turned out to be 35.5. Besides, in test [3], the LogSel was 1.55. Also, the “Efficacy (GABA)%” value in test [4] was 41%. Besides, the “Fold increase h-GABA-A α2β2γ1 oocyte @ 30-fold Ki” value in test [4] stood at 1.41.
`Cc1cnc2n1-c1ccc(C(F)(F)F)c(Cl)c1C(c1c(F)cccc1F)=N[C@H]2C` [Example 115, (4S)-7-chloro-6-(2,6-difluorophenyl)-1,4-dimethyl-8-(trifluoromethyl)-4H-imidazo[1,2-a][1,4]benzodiazepine]: the Ki in test [1] came to 2.63 nM; in test [2] (setting [5]), 12.3 nM; in test [2] (setting [6]), 12.3 nM; in test [3] it was 827 nM. The “γ2/γ1 Selectivity Ratio” value in test [3] came to 67.4. This compound had a LogSel in test [3] of 1.83. The “Efficacy (GABA)%” value in test [4] is recorded as 49%. Besides, the “Fold increase h-GABA-A α2β2γ1 oocyte @ 30-fold Ki” value in test [4] amounted to 1.49.
As to `C[C@@H]1N=C(c2ncccc2F)c2c(ccc(Cl)c2Cl)-n2nc(C(=O)N3CCC3)nc21` [Example 42, azetidin-1-yl-[(4S)-7,8-dichloro-6-(3-fluoro-2-pyridyl)-4-methyl-4H-[1,2,4]triazolo[1,5-a][1,4]benzodiazepin-2-yl]methanone], the Ki in test [1] amounted to 4.24 nM; in test [2] (setting [5]) it was 50.1 nM; in test [2] (setting [6]), 50.1 nM; in test [3], 2630 nM. Also, the “γ2/γ1 Selectivity Ratio” value in test [3] turned out to be 52.5. In test [3], this compound had a LogSel of 1.72. Moreover, the “Efficacy (GABA)%” value in test [4] was found to be 114%. In addition, in test [4], the “Fold increase h-GABA-A α2β2γ1 oocyte @ 30-fold Ki” value amounted to 2.14.
In test [1], `C[C@@H]1N=C(c2c(F)cccc2F)c2c(ccc(C(F)(F)F)c2Cl)-n2ncnc21` [Example 22, (4S)-7-chloro-6-(2,6-difluorophenyl)-4-methyl-8-(trifluoromethyl)-4H-[1,2,4]triazolo[1,5-a][1,4]benzodiazepine] yielded an inhibition constant Ki of 1.02 nM. Further, the Ki in test [2] (setting [5]) was 11.4 nM. In test [2] (setting [6]), the Ki was 11.4 nM. Also, in test [3], the Ki worked out at 1560 nM, the “γ2/γ1 Selectivity Ratio” value is 136.7 and the LogSel was 2.14. For the same compound, in test [4], the “Efficacy (GABA)%” value was determined as 78% and the “Fold increase h-GABA-A α2β2γ1 oocyte @ 30-fold Ki” value worked out at 1.78.
Turning to `C[C@@H]1N=C(c2c(F)cccc2F)c2c(ccc(Cl)c2Cl)-n2nc(C(=O)N3CC4(CCCCO4)C3)nc21` [Example 96, [(4S)-7,8-dichloro-6-(2,6-difluorophenyl)-4-methyl-4H-[1,2,4]triazolo[1,5-a][1,4]benzodiazepin-2-yl]-(5-oxa-2-azaspiro[3.5]nonan-2-yl)methanone], the Ki in test [1] was found to be 2.65 nM. The compound also came in with a Ki in test [2] (setting [5]) of 6.4 nM. The compound also yielded a Ki in test [2] (setting [6]) of 6.42 nM. Moreover, in test [3], the Ki was 933 nM, the “γ2/γ1 Selectivity Ratio” value was 145.4 and the LogSel amounted to 2.16. In test [4], the “Efficacy (GABA)%” value is listed as 52% and the “Fold increase h-GABA-A α2β2γ1 oocyte @ 30-fold Ki” value is recorded as 1.52.
Regarding `C[C@@H]1N=C(c2c(F)cccc2F)c2c(ccc(Cl)c2Cl)-n2nc(C(=O)N3CC4(COC4)C3)nc21` [Example 93, [(4S)-7,8-dichloro-6-(2,6-difluorophenyl)-4-methyl-4H-[1,2,4]triazolo[1,5-a][1,4]benzodiazepin-2-yl]-(2-oxa-6-azaspiro[3.3]heptan-6-yl)methanone], the Ki amounted to 2.25 nM in test [1], 3.3 nM in test [2] (setting [5]), 3.3 nM in test [2] (setting [6]) and 1290 nM in test [3]. For the same compound, the “γ2/γ1 Selectivity Ratio” value in test [3] worked out at 390.6. In test [3], this compound had a LogSel of 2.59. In addition, in test [4], the “Efficacy (GABA)%” value was determined as 75%. For the same compound, in test [4], the “Fold increase h-GABA-A α2β2γ1 oocyte @ 30-fold Ki” value is listed as 1.75.
Turning to `Cc1cnc2n1-c1ccc(Cl)c(Cl)c1C(c1c(F)cccc1F)=N[C@H]2C` [Example 111, (4S)-7,8-dichloro-6-(2,6-difluorophenyl)-1,4-dimethyl-4H-imidazo[1,2-a][1,4]benzodiazepine], the Ki in test [1] came out at 1.24 nM. This compound returned a Ki in test [2] (setting [5]) of 5.2 nM. This compound also displayed a Ki in test [2] (setting [6]) of 5.16 nM. Besides, in test [3], the Ki came out at 235 nM, the “γ2/γ1 Selectivity Ratio” value was 45.6 and the LogSel is on record as 1.66. Further, in test [4], the “Efficacy (GABA)%” value is reported as 35% and the “Fold increase h-GABA-A α2β2γ1 oocyte @ 30-fold Ki” value was determined as 1.35.
As to `[2H]C([2H])([2H])NC(=O)c1nc2n(n1)-c1ccc(Cl)c(Cl)c1C(c1c(F)cccc1F)=NC2` [Example 7, 7,8-dichloro-6-(2,6-difluorophenyl)-N-(trideuteriomethyl)-4H-[1,2,4]triazolo[1,5-a][1,4]benzodiazepine-2-carboxamide], the affinity in test [1], expressed as Ki, was 0.75 nM. For the same compound, affinity in test [2] (setting [5]) was put at a Ki of 6 nM. In test [2] (setting [6]), this compound displayed a Ki of 6 nM. Moreover, in test [3], affinity was put at a Ki of 455 nM, the “γ2/γ1 Selectivity Ratio” value came out at 75.6 and the LogSel stood at 1.88. Moreover, in test [4], the “Efficacy (GABA)%” value amounted to 68% and the “Fold increase h-GABA-A α2β2γ1 oocyte @ 30-fold Ki” value stood at 1.68.
Regarding `COc1nc2n(n1)-c1ccc(Cl)c(Cl)c1C(c1c(F)cccc1F)=N[C@H]2C` [Example 91, (4S)-7,8-dichloro-6-(2,6-difluorophenyl)-2-methoxy-4-methyl-4H-[1,2,4]triazolo[1,5-a][1,4]benzodiazepine], the Ki is 1.5 nM in test [1], 23.7 nM in test [2] (setting [5]), 23.7 nM in test [2] (setting [6]) and 752 nM in test [3]. Moreover, in test [3], the “γ2/γ1 Selectivity Ratio” value is 31.7. The compound further displayed a LogSel in test [3] of 1.50. The “Efficacy (GABA)%” value in test [4] was determined as 75%. For the same compound, the “Fold increase h-GABA-A α2β2γ1 oocyte @ 30-fold Ki” value in test [4] is 1.75.
On to `C[C@@H]1N=C(c2ncccc2F)c2c(ccc(C(F)(F)F)c2Cl)-n2nc(NC(=O)NC3COC3)nc21` [Example 146, 1-[(4S)-7-chloro-6-(3-fluoro-2-pyridyl)-4-methyl-8-(trifluoromethyl)-4H-[1,2,4]triazolo[1,5-a][1,4]benzodiazepin-2-yl]-3-(oxetan-3-yl)urea], for which the affinity in test [1], expressed as Ki, was 7.2 nM. In test [2] (setting [5]), this compound yielded a Ki of 36.1 nM. In test [2] (setting [6]), this compound showed a Ki of 36.1 nM. Moreover, in test [3], the Ki came out at 13100 nM, the “γ2/γ1 Selectivity Ratio” value is on record as 364.3 and the LogSel was determined as 2.56. In addition, in test [4], the “Efficacy (GABA)%” value is 111% and the “Fold increase h-GABA-A α2β2γ1 oocyte @ 30-fold Ki” value was 2.11.
Consider `C[C@@H]1N=C(c2c(F)cccc2F)c2c(ccc(Cl)c2Cl)-n2nc(C#N)nc21` [Example 53, (4S)-7,8-dichloro-6-(2,6-difluorophenyl)-4-methyl-4H-[1,2,4]triazolo[1,5-a][1,4]benzodiazepine-2-carbonitrile], for which the Ki in test [1] was 1.65 nM. The compound also gave a Ki in test [2] (setting [5]) of 61.4 nM. In addition, the Ki in test [2] (setting [6]) is 61.4 nM. Also, in test [3], affinity was put at a Ki of 2550 nM, the “γ2/γ1 Selectivity Ratio” value amounted to 41.5 and the LogSel was 1.62. Further, in test [4], the “Efficacy (GABA)%” value came to 73% and the “Fold increase h-GABA-A α2β2γ1 oocyte @ 30-fold Ki” value came to 1.73.
As for `C[C@@H]1N=C(c2ncccc2F)c2c(ccc(C(F)(F)F)c2Cl)-n2nc(C(=O)N3CC4(CCCO4)C3)nc21` [Example 113, [(4S)-7-chloro-6-(3-fluoro-2-pyridyl)-4-methyl-8-(trifluoromethyl)-4H-[1,2,4]triazolo[1,5-a][1,4]benzodiazepin-2-yl]-(5-oxa-2-azaspiro[3,4]octan-2-yl)methanone], in test [1], affinity was put at a Ki of 7.04 nM. The Ki in test [2] (setting [5]) amounted to 18.9 nM. Moreover, the Ki in test [2] (setting [6]) was determined as 18.9 nM. Moreover, in test [3], affinity was put at a Ki of 11400 nM, the “γ2/γ1 Selectivity Ratio” value came out at 604.3 and the LogSel is 2.78. In test [4], the “Efficacy (GABA)%” value is recorded as 76% and the “Fold increase h-GABA-A α2β2γ1 oocyte @ 30-fold Ki” value stood at 1.76.
As to `COCc1nc2n(n1)-c1ccc(Cl)c(Cl)c1C(c1c(F)cccc1F)=N[C@H]2C` [Example 27, (4S)-7,8-dichloro-6-(2,6-difluorophenyl)-2-(methoxymethyl)-4-methyl-4H-[1,2,4]triazolo[1,5-a][1,4]benzodiazepine], the Ki in test [1] was 1.08 nM. Also, affinity in test [2] (setting [5]) was put at a Ki of 11.4 nM. Also, the Ki in test [2] (setting [6]) came out at 11.4 nM. In addition, in test [3], affinity was put at a Ki of 707 nM, the “γ2/γ1 Selectivity Ratio” value is 61.8 and the LogSel is on record as 1.79. In test [4], the “Efficacy (GABA)%” value was 69% and the “Fold increase h-GABA-A α2β2γ1 oocyte @ 30-fold Ki” value was determined as 1.69.
With `C[C@@H]1N=C(c2ncccc2F)c2c(ccc(C(F)(F)F)c2Cl)-n2nc(C(=O)NCCO)nc21` [Example 138, (4S)-7-chloro-6-(3-fluoro-2-pyridyl)-N-(2-hydroxyethyl)-4-methyl-8-(trifluoromethyl)-4H-[1,2,4]triazolo[1,5-a][1,4]benzodiazepine-2-carboxamide], the Ki in test [1] stood at 17.1 nM. The compound also returned a Ki in test [2] (setting [5]) of 89.6 nM. The same compound came in with a Ki in test [2] (setting [6]) of 89.6 nM. Moreover, in test [3], the Ki is greater than 30000 nM, the “γ2/γ1 Selectivity Ratio” value is 334.8 and the LogSel stood at 2.52. In addition, in test [4], the “Efficacy (GABA)%” value is given as 204% and the “Fold increase h-GABA-A α2β2γ1 oocyte @ 30-fold Ki” value is given as 3.04.
